# Results published in patent US20080033008A1, “COMPOSITIONS AND METHODS FOR TREATING, CONTROLLING, REDUCING, OR AMELIORATING INFECTIONS AND SEQUELAE THEREOF” (priority 2006, published 2008).
# Values joined by “and” are separate entries in the source; they are usually repeats but may differ in a detail not shown here. Equal entries are not always repeated. “Also recorded” adds a separate entry of the source.
# Assays:
# [1] = Pupillary diameter measurement, rabbit paracentesis model; assay type: in vivo; conditions: raw data per eye; for Diameter (mm) T2: −5 min: 5 min before the first paracentesis; for Diameter (mm) T3: +115 min: 5 min before the second paracentesis; for Diameter (mm) T1: −180 min: −180 min (basal)
# Experimental: (§1) Each rabbit was placed in a restraint device and tagged with the alphanumeric code. The formulations were instilled (50 μl) into the conjunctival sac of both eyes 180, 120, 90 and 30 min before the first paracentesis; then 15, 30, 90 min after the first paracentesis. To perform the first paracentesis the animals were anaesthetized by intraveneous injection of 5 mg/kg Zoletil® (Virbac; 2.5 mg/kg tiletamine HCl and 2.5 mg/kg zolazepam HCl) and one drop of local anesthetic (Novesina®, Novartis) was administered to the eye. Anterior chamber paracentesis was performed with a 26 G needle attached to a tuberculin syringe; the needle was introduced into the anterior chamber through the cornea, taking care not to damage the tissues. Two hours after the first paracentesis, the animals were sacrificed with 0.4 ml Tanax® (Intervet International B.V.) and the second paracentesis was performed. About 100 μl of aqueous humor were removed at the second paracentesis. Aqueous humor was immediately split in four aliquots and stored at −80° C. until analysis. Then both eyes were enucleated and the iris-ciliary body was carefully excised, placed in polypropylene tubes, and stored at −80° C. until analysis.
# The pupillary diameter of both eyes was measured with a Castroviejo caliper 180 min and 5 min before the first paracentesis and 5 min before the second paracentesis.
# [2] = Clinical evaluation by slit lamp (clinical score), rabbit paracentesis model; assay type: in vivo
# Experimental: as §1
# The clinical evaluation of both eyes was performed by a slit lamp (4179-T; Sbisa, Italy) at 180 min and 5 min before the first paracentesis and 5 min before the second paracentesis. The clinical score was assigned according to the following scheme:
# 1=discrete dilatation of iris and conjunctival vessels
# 2=moderate dilatation of iris and conjunctival vessels
# 3=intense iridal hyperemia with flare in the anterior chamber
# 4=intense iridal hyperemia with flare in the anterior chamber and presence of fibrinous exudates.
# Myeloperoxidase (MPO) = Myeloperoxidase (MPO) activity in iris-ciliary body, rabbit paracentesis model; assay type: in vivo; conditions: iris-ciliary body samples collected after the second paracentesis, raw data per eye (DX/SX)
# Experimental: 3.9 g of NaH2PO4 2H2O were dissolved in a volumetric flask to 500 ml with water. The pH was adjusted to pH=6 with 3N NaOH.
# 0.5 g of hexa-decyl-trimethyl-ammonium bromide was dissolved in 100 ml phosphate buffer.
# The solution was prepared freshly. Ten microliters of H2O2 (30 wt. %) were diluted to 1 ml with water (solution A). 7.5 mg o-dianisidine 2HCl were dissolved in 45 ml of phosphate buffer and 75 μl of solution A were added.
# (§2) Each rabbit was placed in a restraint device and tagged with the alphanumeric code. The formulations were instilled (50 μl) into the conjunctival sac of both eyes 180, 120, 90 and 30 min before the first paracentesis; then 15, 30, 90 min after the first paracentesis. […]
# The activity of MPO was measured as previously described by Williams et al. The iris-ciliary bodies were carefully dried, weighed and immersed in 1 ml of hexa-decyl-trimethyl-ammonium bromide solution. […] The change in absorbance at 460 nm was continuously monitored for 5 min by a spectrophotometer (UV/Vis Spectrometer Lambda EZ 201; Perkin Elmer). The slope of the line (Δ/min) was determined for each sample and used to calculate the number of units of MPO in the tissue as follows:
# Values were expressed as units of MPO/g of tissue.
# [3] = Rabbit paracentesis model of ocular inflammation, overall conclusions; assay type: in vivo; conditions: 0.1%, 0.5% and 1% topical formulations; preliminary conclusions; listed as BOL-303242-X
# Source text: Inflammatory processes are multidimensional in origin, and are characterized by complex cellular and molecular events involving numerous components all of which have not been identified. Prostaglandins are among these mediators and play an important role in certain forms of ocular inflammation. Paracentesis of the anterior chamber in the rabbit eye induces inflammatory reaction due to the disruption of the blood-aqueous barrier (“BAB”), which is mediated, at least in part, by prostaglandin E2 [References 1-3 below]. Intraocular or topical administration of PGE2 disrupts the BAB. [Reference 4, below] The treatment schedule adopted in this study was similar to the clinical NSAIDs (Ocufen) treatment schedule used by surgeons for patients before cataract surgery.
# as §2
# Pupillary diameter, PGE2, protein, PMN, and MPO were expressed as mean ±SEM. […] Clinical score was expressed as % of eyes and the statistical analysis was performed using Kruskal-Wallis followed by a Dunn post hoc test. […]
# [4] = Very preliminary data (not shown) on side effects of corticosteroids
# [5] = system: neovascularization and angiogenesis; conditions: X. Xin et al., J. Biol. Chem. 274:9116-9121 (1999); cited from earlier work
SMILES,Diameter (mm) T2: −5 min ([1]; 0.5% topical),Diameter (mm) T3: +115 min ([1]; 0.5% topical),Diameter (mm) T1: −180 min ([1]; 0.5% topical),"Clinical score expressed as percentage of eyes, Score (%) 0 ([2]; 0.5% topical, −5 min)","Clinical score expressed as percentage of eyes, Score (%) 0 ([2]; 0.5% topical, −180 min (basal))",Diameter (mm) T2: −5 min ([1]; 0.1% topical),Diameter (mm) T3: +115 min ([1]; 0.1% topical),Diameter (mm) T1: −180 min ([1]; 0.1% topical),"Clinical score expressed as percentage of eyes, Score (%) 3 ([2]; 0.1% topical, +115 min)","Clinical score expressed as percentage of eyes, Score (%) 0 ([2]; 0.1% topical, −5 min)","Clinical score expressed as percentage of eyes, Score (%) 0 ([2]; 0.1% topical, −180 min (basal))",further results
"CCOC(=O)O[C@]1(C(=O)OCCl)CC[C@H]2[C@@H]3CCC4=CC(=O)C=C[C@]4(C)[C@H]3[C@@H](O)C[C@@]21C [LE, loteprednol etabonate]",6.0 mm and 6.5 mm,4.5 mm and 5.0 mm and 5.5 mm and 6.0 mm,6.0 mm and 6.5 mm,100%,100%,–,–,–,–,–,–,"Clinical score expressed as percentage of eyes, Score (%) 1 ([2]; 0.5% topical, +115 min): 75%; Clinical score expressed as percentage of eyes, Score (%) 2 ([2]; 0.5% topical, +115 min): 25%"
Cc1ccc2c(NCC(O)(CC(C)(C)c3cc(F)cc4c3OCC4)C(F)(F)F)cccc2n1 (centres unmarked) [BOL],8.0 mm and 7.0 mm and 7.5 mm,6.5 mm and 6.0 mm and 7.0 mm,8.0 mm and 7.0 mm and 7.5 mm,100%,100%,6.5 mm and 7.0 mm and 7.5 mm,5.0 mm and 6.0 mm and 6.5 mm and 5.5 mm,6.5 mm and 7.0 mm and 7.5 mm,25%,100%,100%,"Diameter (mm) T2: −5 min ([1]; 1% topical): 6.0 mm and 6.5 mm and 7.0 mm; Diameter (mm) T3: +115 min ([1]; 1% topical): 5.5 mm and 5.0 mm and 6.0 mm; Diameter (mm) T1: −180 min ([1]; 1% topical): 6.0 mm and 6.5 mm; MPO (Myeloperoxidase (MPO); 0.1% treatment): 1.00 Unit/g and 0.61 Unit/g and 0.65 Unit/g; MPO (Myeloperoxidase (MPO); 0.5% treatment): 0.85 Unit/g and 0.93 Unit/g and 0.79 Unit/g and 0.75 Unit/g and 0.74 Unit/g and 0.54 Unit/g and 0.58 Unit/g; Clinical score expressed as percentage of eyes, Score (%) 2 ([2]; 0.1% topical, +115 min): 75%; Clinical score expressed as percentage of eyes, Score (%) 2 ([2]; 1% topical, +115 min): 100%; Clinical score expressed as percentage of eyes, Score (%) 0 ([2]; 1% topical, −5 min): 100%; Clinical score expressed as percentage of eyes, Score (%) 0 ([2]; 1% topical, −180 min (basal)): 100%; Anti-inflammatory activity in the rabbit paracentesis model (conclusion) [3]: active in this model; also recorded: as effective an anti-inflammatory drug as some of the commonly accepted prior-art steroids or NSAID; Side effects of corticosteroids [4]: does not have some of the side effects of corticosteroids"
"CC(C(=O)O)c1ccc(-c2ccccc2)c(F)c1 (centres unmarked) [F, flurbiprofen]",–,–,–,–,–,–,–,–,–,–,–,"Diameter (mm) T2: −5 min ([1]; 0.03% topical): 6.0 mm and 6.5 mm and 7.0 mm and 5.5 mm; Diameter (mm) T3: +115 min ([1]; 0.03% topical): 4.0 mm and 3.5 mm and 5.5 mm and 5.0 mm and 4.5 mm and 6.0 mm; Diameter (mm) T1: −180 min ([1]; 0.03% topical): 5.0 mm and 7.0 mm and 6.0 mm and 5.5 mm; Clinical score expressed as percentage of eyes, Score (%) 2 ([2]; 0.03% topical, +115 min): 100%; Clinical score expressed as percentage of eyes, Score (%) 0 ([2]; 0.03% topical, −5 min): 100%; Clinical score expressed as percentage of eyes, Score (%) 0 ([2]; 0.03% topical, −180 min (basal)): 100%"
"CCCCCC=CC=C1C(=O)C=C[C@@H]1CC=CCCCC(=O)O [15-deoxy-Δ-12,14-prostaglandin J2]",–,–,–,–,–,–,–,–,–,–,–,Neovascularization and angiogenesis in the rat cornea [5]: inhibit neovascularization and angiogenesis
"C[C@@H]1C[C@H]2[C@@H]3CCC4=CC(=O)C=C[C@]4(C)[C@@]3(F)[C@@H](O)C[C@]2(C)[C@@]1(O)C(=O)CO [Dex, dexamethasone]",–,–,–,–,–,5.5 mm and 6.5 mm and 6.0 mm and 7.0 mm and 7.5 mm,5.5 mm and 6.0 mm and 4.5 mm and 5.0 mm and 6.5 mm,6.0 mm and 7.0 mm and 5.5 mm and 6.5 mm,25%,75%,100%,"Clinical score expressed as percentage of eyes, Score (%) 1 ([2]; 0.1% topical, +115 min): 75%; Clinical score expressed as percentage of eyes, Score (%) 1 ([2]; 0.1% topical, −5 min): 25%"
